Test [1] has as its target T1, Mr 75000-85000 protein (Mus musculus, UniProt P21729).
T1 construct: endogenous in cells; host or cells: Swiss 3T3 cells (intact, confluent and quiescent)
Put plainly: ^125 I-GRP affinity labelling (EGS cross-linking) of the Mr 75000-85000 protein in Swiss 3T3 cells. Format: binding. On the procedure:
After 2.5 h the cells were washed three times at 15° C. with phosphate buffered saline (PBS) and then incubated for 15 min at 15° C. in 1 ml of binding medium, pH 7.4 in the presence of the appropriate cross-linking agent at the concentration indicated. The cross-linking agents (EGS, DSS, DSP and BSCOES) were dissolved in dimethyl sulphoxide immediately prior to use and were added to medium to give a final concentration of dimethylsulphoxide of 1-2%. The cultures were rapidly rinsed twice with PBS at 4° C. and solubilized in 0.1 ml of 2× sample buffer 0.2M Tris-HCl, pH 6.8, 10% (w/v) glycerol, 6% sodium dodecyl sulphate (SDS) (w/v) 4% β-mercaptoethanol (v/v) and 2 mM ethylenediaminetetraacetic acid. Samples were immediately heated at 100° C. for 3- 5 min and analysed by either one or two-dimensional gel electrophoresis.
Slab gel electrophoresis was performed using 7.5% acrylamide in the separating gel and 5% in the stacking gel, and 0.1% SDS (31). After electrophoresis gels were stained, destained and dried down onto paper for autoradiography with Fuji X-ray film (Fuji Photo Film Co. Ltd. Japan). Dried gels were exposed to film for 4-8 days. Two-dimensional gel electrophoresis was performed as described by O'Farrell (32) using isoelectric focusing in the 1st dimension and SDS-polyacrylamide gel electrophoresis (SDS-PAGE) (8% polyacrylamide) in the second dimension. The samples prepared for isoelectric focusing containing 1.4% LKB ampholytes, pH 5-7, plus 0.6% LKD ampholytes, pH,3.5-10, 6M urea, and 2% Nonidet P-40. The Mr 75000-85000 band from autoradiograms was scanned using a Joyce-Loebl double beam densitometer and the areas under specific peaks were measured with a Hewlett-Packard digitizer.
FIG. 4. […] Values are expressed as percentage of the specific binding obtained in the absence of antagonists. […] Each point represents the mean of 3 determinations. […] Specific binding (B) is expressed in pmol/10^6 cells and is shown in a double-reciprocal plot. Each point represents the mean of duplicate determinations. […] After 2 hours, the cultures were washed twice with binding medium then incubated in 1 ml containing 6 mM ethylene glycol bis (succinimidylsuccinate) (EGS) at pH 7.4 for 15 minutes at 15° C. The cultures were then washed twice with cold phosphate-buffered saline and solubilised in 0.1 ml of 2× sample buffer, then immediately heated at 100° C. for 5 minutes and electrophoresed on a 10% polyacrylamide gel.
After the incubation period cultures were treated with […] EGS as described in Materials and Methods. Each value is expressed as a percentage of the level of the Mr 75000-85000 protein obtained with no additions (-). Other experimental details are as described in Materials and Methods.

Test [2] concerns Swiss 3T3 cells. Put plainly: DNA synthesis by [^3 H]thymidine incorporation in Swiss 3T3 cells (GRP-induced mitogenesis). Format: cell-based, mouse. To be noted: for Ability to inhibit mitogenesis stimulated by GRP (relative potency): substance P antagonists tested at 50 μM. Here is the method: Cell culture procedure (33), assays of DNA synthesis by ^3 H-thymidine incorporation (34) and ^125 I-GRP binding to intact cells (13) were performed as described previously.
FIG. 3. Inhibition of GRP-induced DNA synthesis by [DPro^2 ]spantide (A) and [DPhe^5 ]spantide (D). […] After 40 hours DNA synthesis was estimated by [^3 H]thymidine incorporation into acid-precipitable material. […] Each point represents the mean of duplicate determinations. […] Values are expressed as a percentage of [^3 H]thymidine incorporation obtained in the absence of antagonists (100%=8.6×10^5 cpm per dish). Each point represents the mean of 4 determinations.
On the technique in general: Dividing cells build labelled thymidine or BrdU into new DNA.

The subject of test [3] is Swiss 3T3 cells. To be noted: reference (13); cited from earlier work.
Test [4] has as its target T2, GRP receptor (Mus musculus, UniProt P21729).
T2 construct: endogenous in cells; host or cells: Swiss 3T3 cells (intact, confluent and quiescent)
As to conditions: reference (13); cited from earlier work.

Where [5] appears, read: ^125 I-GRP 0.5 nM, 15° C., 2.5 h, EGS, each addition at its own concentration.

Like-named read-outs stand apart in the source and are kept apart here. Non-standard residues stand in square brackets, D forms with d. Residues, ends and D or L forms follow the SMILES beside them. No end group written: not given here. Tyr(3-I) = N[C@@H](Cc1ccc(O)c(I)c1)C(=O)O

T1 sequence (P21729 whole entry): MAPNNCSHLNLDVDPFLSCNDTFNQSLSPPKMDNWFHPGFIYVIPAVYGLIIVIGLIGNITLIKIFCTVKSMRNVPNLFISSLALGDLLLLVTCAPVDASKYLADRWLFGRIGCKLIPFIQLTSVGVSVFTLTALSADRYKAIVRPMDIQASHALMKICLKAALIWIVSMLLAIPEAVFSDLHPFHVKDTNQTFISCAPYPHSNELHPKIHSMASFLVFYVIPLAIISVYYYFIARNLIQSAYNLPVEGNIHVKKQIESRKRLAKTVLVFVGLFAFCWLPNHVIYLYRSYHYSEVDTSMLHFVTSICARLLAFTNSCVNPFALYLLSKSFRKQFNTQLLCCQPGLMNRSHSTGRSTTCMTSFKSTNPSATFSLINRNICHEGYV
T2 sequence (P21729 whole entry): as above

For “GRP (14-27): the 14-27 amino acid fragment of GRP (MYPRGNHWAVGHLM; ends and bridges not checked; UniProt P07492 37-50, looked up, fragment)”, the “Mr 75000-85000 protein % of control” value in test [1] (setting [5]) was 0.4 % of control.

As to `C[C@H](N)C(=O)NCC(=O)N[C@H]1CSSC[C@@H](C(=O)O)NC(=O)[C@H](CO)NC(=O)[C@H]([C@@H](C)O)NC(=O)[C@H](Cc2ccccc2)NC(=O)[C@H]([C@@H](C)O)NC(=O)[C@H](CCCCN)NC(=O)[C@H](Cc2c[nH]c3ccccc23)NC(=O)[C@H](Cc2ccccc2)NC(=O)[C@H](Cc2ccccc2)NC(=O)[C@H](CC(N)=O)NC(=O)[C@H](CCCCN)NC1=O` [Somatostatin], the “Mr 75000-85000 protein % of control” value in test [1] (setting [5]) is on record as 97 % of control.

On to `CC(C)C[C@H](NC(=O)[C@H](CC(C)C)NC(=O)[C@@H](Cc1c[nH]c2ccccc12)NC(=O)[C@H](Cc1ccccc1)NC(=O)[C@@H](Cc1c[nH]c2ccccc12)NC(=O)[C@H](CCC(N)=O)NC(=O)[C@H](CCC(N)=O)NC(=O)[C@@H]1CCCN1C(=O)[C@H](CCCCN)NC(=O)[C@H]1CCCN1C(=O)[C@H](N)CCCNC(=N)N)C(N)=O` [Antagonist A, D-Arg-D-Pro-Lys-Pro-Gln-Gln-D-Trp-Phe-D-Trp-Leu-Leu-NH2] (H-[dR][dP]KPQQ[dW]F[dW]LL-NH2), for which, in test [1] (setting [5]), the “Mr 75000-85000 protein % of control” value was 9.7 % of control.

`CSCC[C@H](NC(=O)[C@H](CC(C)C)NC(=O)[C@H](Cc1cnc[nH]1)NC(=O)CNC(=O)[C@@H](NC(=O)[C@H](C)NC(=O)[C@H](Cc1c[nH]c2ccccc12)NC(=O)[C@H](CCC(N)=O)NC(=O)[C@H](CC(N)=O)NC(=O)CNC(=O)[C@H](CC(C)C)NC(=O)[C@H](CCCN=C(N)N)NC(=O)[C@H](CCC(N)=O)NC(=O)[C@@H]1CCC(=O)N1)C(C)C)C(N)=O` [Bombesin]: the “Mr 75000-85000 protein % of control” value in test [1] worked out at 0.5.

EGF: epidermal growth factor: the “Mr 75000-85000 protein % of control” value in test [1] (setting [5]) is reported as 94 % of control.

For HArgGlyGlnDTrpPheGlyAsp(OtBu)2 [J], the “Ability to inhibit mitogenesis stimulated by GRP (relative potency)” value in test [2] is listed as “less potent than either A or D”.

On to Insulin: mitogen for Swiss 3T3 cells, for which, in test [1] (setting [5]), the “Mr 75000-85000 protein % of control” value was 90 % of control.

In the case of Substance K: neuropeptide, the “Mr 75000-85000 protein % of control” value in test [1] (setting [5]) is on record as 94 % of control.

Take `CC(C)C[C@H](NC(=O)[C@H](CC(C)C)NC(=O)[C@@H](Cc1c[nH]c2ccccc12)NC(=O)[C@H](Cc1ccccc1)NC(=O)[C@@H](Cc1c[nH]c2ccccc12)NC(=O)[C@H](CCC(N)=O)NC(=O)[C@H](CCC(N)=O)NC(=O)[C@@H]1CCCN1C(=O)[C@H](CCCCN)NC(=O)[C@@H]1CCCN1C(=O)[C@H](N)CCCNC(=N)N)C(N)=O` [B, DArgProLysProGlnGlnDTrpPheDTrpLeuLeuNH2] (H-[dR]PKPQQ[dW]F[dW]LL-NH2): in test [2] (even at 100 μM), the “Antagonist activity against GRP-stimulated mitogenesis” value is on record as “no antagonist activity”. Moreover, the “Ability to inhibit mitogenesis stimulated by GRP (relative potency)” value in test [2] is “less potent than either A or D”.

Litorin: the “Mr 75000-85000 protein % of control” value in test [1] (setting [5]) is recorded as 2 % of control.

For `CSCC[C@H](NC(=O)[C@H](CC(C)C)NC(=O)CNC(=O)[C@H](Cc1ccccc1)NC(=O)[C@H](Cc1ccccc1)NC(=O)[C@H](CCC(N)=O)NC(=O)[C@H](CCC(N)=O)NC(=O)[C@@H]1CCCN1C(=O)[C@H](CCCCN)NC(=O)[C@@H]1CCCN1C(=O)[C@@H](N)CCCNC(=N)N)C(N)=O` [Substance P], the “Mr 75000-85000 protein % of control” value in test [1] (setting [5]) is given as 91 % of control.

As a reminder, the Kd is a measure of binding affinity in units of concentration. Regarding `CSCC[C@H](NC(=O)[C@H](CC(C)C)NC(=O)[C@H](Cc1c[nH]cn1)NC(=O)CNC(=O)[C@@H](NC(=O)[C@H](C)NC(=O)[C@H](Cc1c[nH]c2ccccc12)NC(=O)[C@H](Cc1c[nH]cn1)NC(=O)[C@H](CC(N)=O)NC(=O)CNC(=O)[C@H](CCCNC(=N)N)NC(=O)[C@@H]1CCCN1C(=O)[C@H](Cc1ccc(O)c(I)c1)NC(=O)[C@H](CCSC)NC(=O)[C@H](CCCCN)NC(=O)[C@H](C)NC(=O)[C@H](CC(C)C)NC(=O)[C@@H](NC(=O)[C@@H](NC(=O)CNC(=O)CNC(=O)CNC(=O)[C@@H](NC(=O)[C@H](CO)NC(=O)[C@@H](NC(=O)[C@@H]1CCCN1C(=O)[C@H](C)N)C(C)C)C(C)C)[C@@H](C)O)C(C)C)C(C)C)C(N)=O` [^125 I-GRP] (H-APVSVGGGTVLAKM[Tyr(3-I)]PRGNHWAVGHLM-NH2; N-terminus and C-terminus assumed), the Kd in test [1] (15° C., 2.5 h, EGS 6 mM, read-out: Kd from double-reciprocal plot of cross-linking of ^125 I-GRP to the Mr 75000-85000 band) turned out to be 1 nM.

Consider PDGF, for which, in test [1] (setting [5]), the “Mr 75000-85000 protein % of control” value is given as 99 % of control.

As for “GRP (1-16): the 1-16 amino acid (amino-terminal) fragment of GRP (VPLPAGGGTVLTKMYP; Gastrin-releasing peptide; UniProt P07492 24-39, looked up, fragment)”, the “Mr 75000-85000 protein % of control” value in test [1] (setting [5]) is 93 % of control. Besides, the “Stimulation of DNA synthesis” value in test [3] is recorded as “nor stimulates DNA synthesis”. The “Inhibition of ^125 I-GRP binding” value in test [4] is recorded as “neither inhibits ^125 I-GRP binding”.

With `NC(=O)CC[C@@H]1NC(=O)[C@H](Cc2ccccc2)NC(=O)[C@H](Cc2ccc(O)cc2)NC(=O)[C@@H](N)CSSC[C@@H](C(=O)N2CCC[C@H]2C(=O)N[C@@H](CCCN=C(N)N)C(=O)NCC(N)=O)NC(=O)[C@H](CC(N)=O)NC1=O` [Vasopressin], the “Mr 75000-85000 protein % of control” value in test [1] (setting [5]) is recorded as 94 % of control.

Values taken from US5441935A, “Growth factor receptors” (Imperial Cancer Research Technology Ltd., priority 1987, dated 1995).
